Reference: patent publication US12371428B2 (Exelixis, Inc., priority 2019, dated 2025)

What was measured:
[1] = target: KDR (phospho-KDR, VEGF165-stimulated HUVEC cells) (Homo sapiens (Human), UniProt P35968); assay: KDR autophosphorylation ELISA in HUVEC cells (Example G); assay type: cell-based; details: cellular activity; KDR autophosphorylation ELISA in HUVEC cells
How it was run: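 HUVECs were serum-starved 24 h, given compound as an 8-point dilution series (0.3% DMSO final) for 1 h, then stimulated with 100 ng/mL VEGF165 for 5 min. Lysate phospho-KDR was quantified by sandwich ELISA against a phospho-KDR standard, and IC50s came from a 4-parameter logistic fit.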

[2] = target: Mer (phospho-Mer, MERTK-transfected 293A cells) (Homo sapiens (Human), UniProt Q12866); assay: Mer autophosphorylation ELISA in transient transfected 293A cells (Example H); assay type: cell-based; details: cellular activity; Mer autophosphorylation ELISA in transient transfected 293A cells
Mer (phospho-Mer, MERTK-transfected 293A cells), sequence (Q12866 21-999): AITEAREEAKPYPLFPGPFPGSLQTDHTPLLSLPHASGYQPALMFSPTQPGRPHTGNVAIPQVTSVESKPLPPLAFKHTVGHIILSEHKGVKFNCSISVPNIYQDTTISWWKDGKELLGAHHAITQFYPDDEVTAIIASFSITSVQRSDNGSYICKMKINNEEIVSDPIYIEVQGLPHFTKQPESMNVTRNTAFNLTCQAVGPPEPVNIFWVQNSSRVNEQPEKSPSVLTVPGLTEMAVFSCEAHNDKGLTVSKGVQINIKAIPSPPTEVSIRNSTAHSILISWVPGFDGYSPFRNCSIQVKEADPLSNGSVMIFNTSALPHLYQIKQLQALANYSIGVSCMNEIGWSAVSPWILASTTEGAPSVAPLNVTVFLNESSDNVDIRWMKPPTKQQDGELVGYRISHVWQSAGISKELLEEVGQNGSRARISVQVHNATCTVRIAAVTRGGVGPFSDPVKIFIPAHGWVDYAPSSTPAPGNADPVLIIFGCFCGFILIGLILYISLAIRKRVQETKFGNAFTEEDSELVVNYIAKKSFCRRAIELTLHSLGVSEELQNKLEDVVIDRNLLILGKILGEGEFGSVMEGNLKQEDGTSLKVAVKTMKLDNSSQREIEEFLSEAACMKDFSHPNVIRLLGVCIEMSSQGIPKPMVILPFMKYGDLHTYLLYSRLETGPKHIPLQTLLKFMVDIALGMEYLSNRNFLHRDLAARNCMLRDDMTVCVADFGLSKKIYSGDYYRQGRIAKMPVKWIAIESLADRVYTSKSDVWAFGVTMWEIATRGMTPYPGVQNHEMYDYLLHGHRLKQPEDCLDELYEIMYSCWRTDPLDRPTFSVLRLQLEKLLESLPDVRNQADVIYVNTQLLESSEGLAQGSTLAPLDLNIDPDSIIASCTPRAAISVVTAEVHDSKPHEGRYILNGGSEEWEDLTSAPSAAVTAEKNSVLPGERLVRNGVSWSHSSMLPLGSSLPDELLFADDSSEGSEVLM
How it was run: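 Inhibition of cellular Mer autophosphorylation is determined in 293A cells transiently expressing human MERTK after 1 h compound exposure (8 concentrations, serum-free, 0.3% DMSO). Phospho-Mer in clarified lysates is measured by ELISA, with DMSO and reference-inhibitor wells defining the 100% and 0% activity limits.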

KDR (phospho-KDR, VEGF165-stimulated HUVEC cells), sequence (P35968 20-1356): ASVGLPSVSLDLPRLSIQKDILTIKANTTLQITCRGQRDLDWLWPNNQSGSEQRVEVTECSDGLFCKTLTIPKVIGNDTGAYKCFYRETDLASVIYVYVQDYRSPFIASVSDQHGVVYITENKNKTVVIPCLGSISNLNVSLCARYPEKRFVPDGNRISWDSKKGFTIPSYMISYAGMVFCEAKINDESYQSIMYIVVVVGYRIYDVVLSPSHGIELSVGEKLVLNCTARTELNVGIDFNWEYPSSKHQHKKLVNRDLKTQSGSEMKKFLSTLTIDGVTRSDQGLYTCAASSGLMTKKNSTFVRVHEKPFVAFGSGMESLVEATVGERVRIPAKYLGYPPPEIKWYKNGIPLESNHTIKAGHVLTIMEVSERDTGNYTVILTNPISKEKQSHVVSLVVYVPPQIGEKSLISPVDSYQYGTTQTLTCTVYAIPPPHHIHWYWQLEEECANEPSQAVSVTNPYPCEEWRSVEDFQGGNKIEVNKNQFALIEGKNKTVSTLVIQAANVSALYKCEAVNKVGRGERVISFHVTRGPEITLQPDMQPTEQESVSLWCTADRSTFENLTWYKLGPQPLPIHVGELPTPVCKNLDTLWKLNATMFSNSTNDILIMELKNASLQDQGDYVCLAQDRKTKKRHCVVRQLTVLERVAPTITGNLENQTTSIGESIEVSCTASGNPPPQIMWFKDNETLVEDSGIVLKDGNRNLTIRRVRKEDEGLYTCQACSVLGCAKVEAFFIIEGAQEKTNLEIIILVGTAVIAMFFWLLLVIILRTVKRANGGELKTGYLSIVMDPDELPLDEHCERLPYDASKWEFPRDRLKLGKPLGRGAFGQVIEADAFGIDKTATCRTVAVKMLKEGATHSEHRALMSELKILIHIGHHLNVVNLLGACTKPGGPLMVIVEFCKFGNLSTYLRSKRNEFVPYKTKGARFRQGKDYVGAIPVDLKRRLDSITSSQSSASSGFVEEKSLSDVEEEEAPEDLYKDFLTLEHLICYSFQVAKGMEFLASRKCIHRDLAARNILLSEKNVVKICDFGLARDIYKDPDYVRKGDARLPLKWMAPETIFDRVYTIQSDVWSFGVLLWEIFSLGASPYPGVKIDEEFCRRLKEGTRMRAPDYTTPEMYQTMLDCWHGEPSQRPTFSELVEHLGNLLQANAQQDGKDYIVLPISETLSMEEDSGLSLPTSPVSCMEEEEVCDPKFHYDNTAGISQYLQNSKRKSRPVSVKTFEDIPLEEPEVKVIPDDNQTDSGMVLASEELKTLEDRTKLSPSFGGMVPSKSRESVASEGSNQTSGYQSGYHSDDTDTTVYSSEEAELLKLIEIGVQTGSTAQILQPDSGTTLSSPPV

IC50 [1] [nM] | IC50 [2] [nM] | SMILES
< 100 | < 100 | COc1cc2nccc(Oc3ccc(NC(=O)c4cnc(C)c(-c5ccc(F)cc5)c4O)cc3)c2nc1OC(C)C [Compound 413, 5-(4-fluorophenyl)-4-hydroxy-N-[4-[(7-methoxy-6-propan-2-yloxy-1,5-naphthyridin-4-yl)oxy]phenyl]-6-methylpyridine-3-carboxamide]
> 300 | < 100 | COc1cc2nccc(Oc3ccc(NC(=O)c4cn(C5CC5)c(C)c(-c5ccc(F)cc5)c4=O)cc3)c2nc1OC [Compound 434, 1-cyclopropyl-N-[4-[(6,7-dimethoxy-1,5-naphthyridin-4-yl)oxy]phenyl]-5-(4-fluorophenyl)-6-methyl-4-oxopyridine-3-carboxamide]
< 100 | < 100 | Cc1cc(F)ccc1-c1c(C)nc(C)c(C(=O)Nc2ccc(Oc3ccnc4cc(C)c(F)nc34)c(F)c2)c1O [Compound 428, N-[3-fluoro-4-[(6-fluoro-7-methyl-1,5-naphthyridin-4-yl)oxy]phenyl]-5-(4-fluoro-2-methylphenyl)-4-hydroxy-2,6-dimethylpyridine-3-carboxamide]
> 300 | < 100 | COc1cc2nccc(Oc3ccc(NC(=O)c4cn(-c5ccn(C)n5)cc(-c5ccc(F)cc5)c4=O)cc3F)c2nc1OC [Compound 53, N-[4-[(6,7-Dimethoxy-1,5-naphthyridin-4-yl)oxy]-3-fluorophenyl]-5-(4-fluorophenyl)-1-(1-methylpyrazol-3-yl)-4-oxopyridine-3-carboxamide]
> 300 | < 100 | COc1cnc2c(Oc3ccc(NC(=O)c4cn(C)c(Cl)c(-c5ccc(F)cc5)c4=O)cc3F)ccnc2c1 [Compound 411, 6-chloro-N-[3-fluoro-4-[(7-methoxy-1,5-naphthyridin-4-yl)oxy]phenyl]-5-(4-fluorophenyl)-1-methyl-4-oxopyridine-3-carboxamide]
